Reference: ChEMBL document CHEMBL4177638, “Challenges in the development of an M4 PAM preclinical candidate: The discovery, SAR, and biological characterization of a series of azetidine-derived tertiary amides” (Bioorg Med Chem Lett, 2017)
Activity calls are given as the source filed them. The rule behind the calls is not given here.

Legend:
[1] = biological target: T1, Muscarinic acetylcholine receptor M4 (Homo sapiens, UniProt P08173); assay: Positive allosteric modulation of human M4 receptor expressed in CHO cells co-expressing Gqi5 assessed as increase in acetylcholine-induced calcium mobilization; format: functional, cell-based
T1 sequence (P08173 whole entry): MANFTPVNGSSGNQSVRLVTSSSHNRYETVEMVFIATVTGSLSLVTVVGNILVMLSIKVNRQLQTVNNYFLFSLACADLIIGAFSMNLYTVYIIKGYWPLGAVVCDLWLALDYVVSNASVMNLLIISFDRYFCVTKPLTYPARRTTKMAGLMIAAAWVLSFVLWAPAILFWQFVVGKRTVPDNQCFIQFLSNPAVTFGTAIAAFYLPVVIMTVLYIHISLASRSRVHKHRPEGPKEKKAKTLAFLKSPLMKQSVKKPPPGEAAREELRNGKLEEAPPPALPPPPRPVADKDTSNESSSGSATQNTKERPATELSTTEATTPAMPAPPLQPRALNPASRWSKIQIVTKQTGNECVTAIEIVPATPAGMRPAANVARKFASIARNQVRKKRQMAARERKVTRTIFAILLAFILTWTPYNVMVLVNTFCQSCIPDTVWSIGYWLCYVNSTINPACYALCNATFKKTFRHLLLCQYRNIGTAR

[2] = biological target: T2, Muscarinic acetylcholine receptor M4 (Homo sapiens) (UniProt P08173); assay: Positive allosteric modulation of human M4 receptor expressed in CHO cells co-expressing Gqi5 assessed as increase in acetylcholine-induced calcium mobilization relative to acetylcholine; format: functional, cell-based
T2 sequence (whole entry): T1 sequence (P08173 whole entry)

[3] = biological target: T3, Muscarinic acetylcholine receptor M5 (Homo sapiens, UniProt P08912); assay: Positive allosteric modulation of human M5 receptor assessed as increase in acetylcholine-induced response; format: functional
T3 sequence (P08912 whole entry): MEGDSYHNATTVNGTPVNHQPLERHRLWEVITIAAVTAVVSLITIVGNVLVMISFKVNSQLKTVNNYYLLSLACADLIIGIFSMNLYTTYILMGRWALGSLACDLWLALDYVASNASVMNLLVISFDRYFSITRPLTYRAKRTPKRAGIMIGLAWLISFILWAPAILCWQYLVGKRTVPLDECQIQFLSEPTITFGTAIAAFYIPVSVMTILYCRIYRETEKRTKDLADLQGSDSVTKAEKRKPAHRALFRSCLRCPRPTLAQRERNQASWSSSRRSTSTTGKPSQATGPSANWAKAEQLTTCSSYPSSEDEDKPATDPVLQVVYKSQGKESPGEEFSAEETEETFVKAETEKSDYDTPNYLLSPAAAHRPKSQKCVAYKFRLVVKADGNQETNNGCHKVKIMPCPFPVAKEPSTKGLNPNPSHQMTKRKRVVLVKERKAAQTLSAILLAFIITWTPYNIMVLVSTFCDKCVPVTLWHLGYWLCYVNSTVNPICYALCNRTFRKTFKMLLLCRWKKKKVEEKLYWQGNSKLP

[4] = Ratio of unbound brain to plasma concentration in rat; format: ADME, cell-free
[5] = biological target: T4, Muscarinic acetylcholine receptor M2 (Homo sapiens, UniProt P08172); assay: (§1) Positive allosteric modulation of human M2 receptor assessed as increase in acetylcholine-induced response; format: functional
T4 sequence (P08172 whole entry): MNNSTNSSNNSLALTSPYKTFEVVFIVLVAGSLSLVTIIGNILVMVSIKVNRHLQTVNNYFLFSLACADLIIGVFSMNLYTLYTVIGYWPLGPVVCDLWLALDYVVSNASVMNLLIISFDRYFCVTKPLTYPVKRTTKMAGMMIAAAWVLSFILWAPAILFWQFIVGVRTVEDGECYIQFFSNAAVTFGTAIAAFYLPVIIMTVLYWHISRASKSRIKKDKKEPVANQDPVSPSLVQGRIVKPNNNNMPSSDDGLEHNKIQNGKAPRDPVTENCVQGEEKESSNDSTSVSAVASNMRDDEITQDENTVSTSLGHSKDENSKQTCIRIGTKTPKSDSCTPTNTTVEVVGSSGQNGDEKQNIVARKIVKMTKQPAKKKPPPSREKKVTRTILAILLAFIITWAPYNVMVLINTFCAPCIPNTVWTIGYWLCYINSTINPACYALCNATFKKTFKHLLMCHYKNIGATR

[6] = Ratio of EC50 for rat M4 receptor to EC50 for human M4 receptor expressed in CHO cells co-expressing Gqi5; format: cell-based
Rattus norvegicus = assay: Antipsychotic activity in rat assessed as reversal of amphetamine-induced hyperlocomotion at 30 mg/kg, po; format: functional
[7] = biological target: Muscarinic acetylcholine receptor M3 (Homo sapiens, UniProt P20309); assay: Positive allosteric modulation of human M3 receptor assessed as increase in acetylcholine-induced response; format: functional
[8] = Brain to plasma partition coefficient, Kp of the compound in rat; format: ADME, cell-free
[9] = biological target: T5, Muscarinic acetylcholine receptor M1 (Homo sapiens, UniProt P11229); assay: Positive allosteric modulation of human M1 receptor assessed as increase in acetylcholine-induced response; format: functional
T5 sequence (P11229 whole entry): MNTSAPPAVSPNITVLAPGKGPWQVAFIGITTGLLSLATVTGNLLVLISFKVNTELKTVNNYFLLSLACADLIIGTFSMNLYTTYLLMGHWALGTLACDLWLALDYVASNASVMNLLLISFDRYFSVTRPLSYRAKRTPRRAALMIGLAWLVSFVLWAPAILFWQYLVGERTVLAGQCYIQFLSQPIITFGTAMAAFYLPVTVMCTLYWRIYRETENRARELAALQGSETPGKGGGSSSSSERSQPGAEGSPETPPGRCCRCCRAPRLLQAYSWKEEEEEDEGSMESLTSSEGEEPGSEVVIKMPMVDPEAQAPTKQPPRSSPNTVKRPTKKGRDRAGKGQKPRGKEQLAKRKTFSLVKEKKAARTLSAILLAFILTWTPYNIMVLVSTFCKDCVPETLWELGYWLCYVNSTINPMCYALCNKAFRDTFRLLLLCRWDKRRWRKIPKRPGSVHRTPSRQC

[10] = biological target: T6, Muscarinic acetylcholine receptor M2 (Homo sapiens) (UniProt P08172); assay: Positive allosteric modulation of human M2 receptor assessed as increase in acetylcholine-induced response relative to acetylcholine; format: functional
T6 sequence (whole entry): T4 sequence (P08172 whole entry)

[11] = biological target: T6, Muscarinic acetylcholine receptor M2 (Homo sapiens); assay: as §1; format: functional
[12] = Oral bioavailability in dog at 10 mg/kg; format: ADME, organism-based, Canis lupus familiaris; details: in vivo
[13] = Clearance in Sprague-Dawley rat plasma at 0.1 to 1 mg/kg, iv; format: ADME, organism-based
[14] = Elimination half life in Sprague-Dawley rat at 0.1 to 1 mg/kg, iv; format: ADME, organism-based; details: in vivo, read-out: beta t1/2 (converted)
[15] = Ratio of unbound brain to plasma concentration in Sprague-Dawley rat at 0.1 to 0.2 mg/kg, iv measured after 0.25 hrs; format: ADME, organism-based; details: read-out: K(p,uu,brain)
[16] = Aqueous solubility of the compound at pH 7.4; format: physicochemical; details: aqueous medium
[17] = Brain to plasma partition coefficient, Kp of the compound in Sprague-Dawley rat at 0.1 to 0.2 mg/kg, iv measured after 0.25 hrs; format: ADME, organism-based

Muscarinic acetylcholine receptor M3, sequence (P20309 whole entry): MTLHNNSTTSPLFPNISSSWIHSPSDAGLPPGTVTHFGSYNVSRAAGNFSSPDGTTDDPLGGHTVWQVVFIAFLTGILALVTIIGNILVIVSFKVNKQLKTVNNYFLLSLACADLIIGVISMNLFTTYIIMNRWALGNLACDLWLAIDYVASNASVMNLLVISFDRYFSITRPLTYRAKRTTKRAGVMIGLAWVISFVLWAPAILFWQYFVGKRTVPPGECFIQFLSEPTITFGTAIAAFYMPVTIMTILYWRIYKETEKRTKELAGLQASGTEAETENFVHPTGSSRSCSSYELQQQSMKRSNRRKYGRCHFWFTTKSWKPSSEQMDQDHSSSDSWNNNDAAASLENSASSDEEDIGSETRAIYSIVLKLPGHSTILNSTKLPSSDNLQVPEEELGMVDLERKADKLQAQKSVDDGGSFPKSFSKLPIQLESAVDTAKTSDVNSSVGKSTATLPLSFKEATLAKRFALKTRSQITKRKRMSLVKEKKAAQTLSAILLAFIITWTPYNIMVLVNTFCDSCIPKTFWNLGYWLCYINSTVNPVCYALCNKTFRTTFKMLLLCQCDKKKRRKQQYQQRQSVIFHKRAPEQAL

| Structure (SMILES) | EC50 [1] [nM] | %max [2] [%] | other results |
| --- | --- | --- | --- |
| COc1cccc(C2CN(C(=O)c3sc4nnc(C)c(C)c4c3N)C2)c1 | > 10000 |  |  |
| Cc1nnc2sc(C(=O)N3CC(F)(c4cccc(F)c4)C3)c(N)c2c1C | 447 | 67 |  |
| Cc1nnc2sc(C(=O)N3CC(F)(c4ccccn4)C3)c(N)c2c1C | 2240 | 78 |  |
| Cc1nnc2sc(C(=O)N3CC(c4ccccc4)C3)c(N)c2c1C | 72 | 65 | EC50 [3]: > 10000 nM; K(p,uu,brain) [4]: 2.1; EC50 [5]: > 10000 nM; Ratio EC50 [6]: 2; Activity (Rattus norvegicus): 32%; EC50 [7]: > 10000 nM; Kp [8]: 2.6; EC50 [9]: > 10000 nM |
| Cc1nnc2sc(C(=O)N3CC(O)(c4ccccc4)C3)c(N)c2c1C | 1050 | 30 |  |
| Cc1nnc2sc(C(=O)N3CC(c4cccs4)C3)c(N)c2c1C | 200 | 78 |  |
| Cc1nnc2sc(C(=O)N3CC(c4cccc(F)c4)C3C)c(N)c2c1C (stereo not given) | 1460 | 45 |  |
| COC1(c2cccc(F)c2)CN(C(=O)c2sc3nnc(C)c(C)c3c2N)C1 | 417 | 36 |  |
| Cc1nnc2sc(C(=O)N3CC4(CCN(c5cccnc5)C4)C3)c(N)c2c1C |  | 53 to 57 |  |
| Cc1nnc2sc(C(=O)N3CC(C4CCCCC4)C3)c(N)c2c1C | 178 | 54 | K(p,uu,brain) [4]: 0.71; Kp [8]: 8.46 |
| Cc1cccc(C2CN(C(=O)c3sc4nnc(C)c(C)c4c3N)C2)c1 | 851 | 83 |  |
| Cc1nnc2sc(C(=O)N3CC(c4ccc(Cl)cc4)C3)c(N)c2c1C | > 10000 |  |  |
| COc1ccccc1C1CN(C(=O)c2sc3nnc(C)c(C)c3c2N)C1 | 2290 | 54 |  |
| Cc1nnc2sc(C(=O)N3CC(c4ccc(Br)cc4)C3)c(N)c2c1C | > 10000 |  |  |
| Cc1ccccc1C1CN(C(=O)c2sc3nnc(C)c(C)c3c2N)C1 | 457 | 72 |  |
| Cc1nnc2sc(C(=O)N3CC(c4cccc(F)c4)C3)c(N)c2c1C | 57 | 83 | K(p,uu,brain) [4]: 0.92; EC50 [5]: 2100 nM; %max [10]: 38%; Kp [8]: 2.1 |
| Cc1nnc2sc(C(=O)N3CC(c4ccc(F)cc4)C3)c(N)c2c1C | 151 | 80 | K(p,uu,brain) [4]: 1.3; Activity [11]: inactive; Kp [8]: 2.3 |
| Cc1nnc2sc(C(=O)NCc3ccc(S(=O)(=O)C(F)(F)F)cc3)c(N)c2c1C.Cl |  |  | bioavailability [12]: 4.7% |
| Cc1nnc2sc(C(=O)NCc3ccc(S(=O)(=O)C(F)(F)F)cc3)c(N)c2c1C |  |  | clearance [13]: 1.6 mL/min/kg; half-life [14]: 2.7 h; Kp uu at 0.25 h [15]: 1.2; solubility [16]: < 0.5 µM; Kp at 0.25 h [17]: 0.11 |
| Cc1nnc2sc(C(=O)N3CC(c4ccccc4F)C3)c(N)c2c1C | 407 | 75 |  |
| Cc1ccc(C2CN(C(=O)c3sc4nnc(C)c(C)c4c3N)C2)cc1 | 1100 | 82 |  |
| COc1ccc(C2CN(C(=O)c3sc4nnc(C)c(C)c4c3N)C2)cc1 | 331 | 94 |  |
| CCCCC1(F)CN(C(=O)c2sc3nnc(C)c(C)c3c2N)C1 | 316 | 85 |  |
| Cc1nnc2sc(C(=O)N3CC(C)(F)C3)c(N)c2c1C | 363 | 98 |  |
| Cc1nnc2sc(C(=O)N3CC(c4ccccc4)C3C)c(N)c2c1C (stereo not given) | 1510 | 45 |  |
